Residues, ends and D or L forms follow the SMILES beside them. No end group written: not given here. *: point of attachment. Cbz = O=C(OCc1ccccc1)*; CH2F = FC*
Columns and labels:
Type in all cases: cell-based
[1] = test system: human Beclin1; test: Beclin1 siRNA knockdown in BCBL1 cells
Experimental: (§1) All siRNAs were produced by Dharmacon Research. siRNAs specific for human Beclin1 (5′[…]3′) and a nonspecific scrambled control siRNA were transfected using DharmaFect reagent (Dharmacon) according to the manufacturer's instructions. At 48-72 hr post-transfection, cells were analyzed for autophagy. Trypan blue staining and a Beckman Coulter Z2 Particle Count and Size analyzer were used to determine cell death (as a percentage) at day 5.

[2] = test system: KSHV-infected BCBL1 cells; test: Rapamycin- or zVAD-induced growth suppression and autophagic death
Experimental: (§2) The effect of vFLIP on autophagy was tested in a KSHV-infected BCBL1 cell line. TREX-BCBL-Vector and TREX-BCBL-vFLIP cells were treated with rapamycin or left untreated for 6 days in the presence of doxycycline and subjected to scanning EM, to examine the morphologies of over 100 dead cells and quantify cell death for apoptosis and autophagic death, or subjected to PI staining and cell cycle analysis.
as §1

[3] = test system: mTor kinase activity in BCBL1 cells; test: Immunoblot of p70S6K and ribosomal protein S6 phosphorylation; conditions: treated BCBL1 cells
Experimental: Levels of phosphorylation of p70S6K and ribosomal protein S6 in BCBL1 cells were evaluated by immunoblotting with α-p70S6K, aphospho-specific p70S6K, aphospho-specific S6, or αactin.

[4] = test system: LC3-II in BCBL1 cells; test: Immunoblotting with αLC3 of peptide-treated cells; conditions: immunoblot
Description: (§3) The vFLIP α2 (10 aa) and α4 (12 aa) peptides that independently bound Atg3 at high efficiency were fused with the HIV-1 TAT protein transduction domain for intracellular delivery (Gump and Dowdy (2007) Trends Mol. Med. 13:443-448) and tested for their potential effects on autophagy induction. The K-α2 and K-α4 peptides contained KSHV vFLIP aa20-29 and aa128-139 regions, respectively, as retro-inverso versions to circumvent the proteolytic degradation. Mutant peptides K-α2m and K-α4m were also included, which replaced the hydrophobic core residues of the K-α2 (L21F22L23) and K-α4 (F130L-WVY139) peptides with alanines, as well as the C-α2 and C-α4 peptides containing the cFLIPs regions aa19-28 and aa128-139, respectively. At 12 hr post-transfection with GFP-LC3, KSHV-infected TREX-BCBL-Vector and TREX-BCBL-vFLIP cells were incubated with various concentrations of the peptides or rapamycin for an additional 12 hr, followed by an assessment of the GFP-LC3 puncta and cell death. […] Peptide-treated TREX-BCBL-Vector and TREX-BCBL-vFLIP cells were subjected to immunoblotting with αLC3 and aactin.

[5] = test system: KSHV-infected TREX-BCBL-Vector cells; test: GFP-LC3 puncta autophagy assessment after peptide treatment; conditions: 30 or 50 μM peptide, 12 hr
Description: as §3

[6] = test system: KSHV-infected BCBL1 cells; test: Combinatory treatment with rapamycin and peptide; conditions: 25 nM rapamycin and 20 μM peptide, versus rapamycin or peptide alone
[7] = test system: virus-associated or non-virus-associated lymphoma cells; test: Cell-type specificity of vFLIP peptide-induced death; conditions: 30 or 50 μM peptide overnight
Experimental: The potential cell-type specificity of the activity of the vFLIP peptides was assessed by treating virus-associated or non-virus-associated lymphoma cells with 30 or 50 μM of the K-α2 or the K-α4 peptide overnight and subsequently assessing death levels.

[8] = test system: ALL cells; test: Tumor cell viability by trypan blue exclusion, ALL cells; conditions: for anticancer activity in ALL cell lines: BV-173 and SUP-B15, FIG. 5
Experimental: (§4) Tumor cells were treated with peptides at various concentrations for 12 hours and their viability measured by trypan blue exclusion, followed by analyses using the Beckman Coulter Z2 Particle Count and Size Analyzer (BC Z2 CS Analyzer). A minimum of 100 cells per sample using triplicate samples was counted per condition per experiment.

[9] = test system: 293T cells; test: Tumor cell viability, 293T cells; conditions: FIG. 7B
Experimental: as §4

[10] = test system: human T cell lymphoblast-like cells, Jurket T; test: Tumor cell viability by trypan blue exclusion, Jurket T; conditions: FIG. 6A
Experimental: as §4

[11] = test system: LNCap cells; test: Tumor cell viability, LNCap prostate cancer line
Experimental: as §4

[12] = test system: HCT116; test: Tumor cell viability, HCT116 colon cancer line; conditions: FIG. 7C
Experimental: as §4

[13] = test system: human erythromyeloblastoid leukemia cells, K562; test: Tumor cell viability by trypan blue exclusion, K562; conditions: FIG. 6B
Experimental: as §4

[14] = test system: TREX-BCBL cells; test: vFLIP expression in KSHV-infected BCBL1 cells: autophagy, growth suppression and death; conditions: ectopic expression in BCBL1 cells
Experimental: To investigate whether vFLIP expression suppresses autophagy in virus-infected cells, a KSHV-infected BCBL1 cell line was constructed (TREX-BCBL) in which a Flag-tagged KSHV-vFLIP gene was integrated into the chromosomal DNA under the control of a tetracycline-inducible promoter. (Nakamura et al. (2003) J. Virol. 77:4205-4220). At 12-16 hr post-transfection with GFP-LC3, TREX-BCBL-Vector and TREX-BCBL-vFLIP cells were treated with Doxycycline for 24 hr, followed by incubation with 2 μM rapamycin for an additional 12 hr. The detection of GFP-LC3 and autophagy levels was performed as described above, vFLIP expression was detected by IB with anti-Flag, and autophagosomes were visualized by scanning EM (scale bar=50 nm). Treatment of these cells with doxycycline strongly activated Flag-vFLIP expression.
as §2, §1

[15] = test system: NIH3T3 cells; test: TNFα-induced apoptosis by PI staining and flow cytometry; conditions: CHX and TNF-α 12 hr
Description: To determine the effects of the interactions of vFLIP with FADD, IKKαβγ, and 14-3-3σ on anti-autophagy activity, NIH3T3 cells stably expressing various vFLIP mutants were constructed: m14-3-3σ, which lacks 14-3-3σ-binding; mTRAF2, which lacks TRAF2-binding (Guasparri et al. (2006) EMBO Rep. 7:114-119); 67AAA and 58AAA, which have reduced NF-κB activation (Matta and Chaudhary (2004) Proc. Natl. Acad. Sci. USA 101:9399-9404); and mFADD, which lacks FADD-binding (Yang et al. (2005) Mol. Cell. 20:939-949). These cells were treated with either cyclohexamide (CHX) alone or CHX and TNF-α for 12 hr or with 2 μM rapamycin for 3 hr. Propidium iodide (PI) staining and flow cytometry analysis were performed to determine apoptosis levels. Alternatively, NIH3T3 cells containing vector, KSHV vFLIP, or its mutants were transfected with an NF-κB-luciferase reporter construct and a control renilla luciferase plasmid, pRL-SV40 (Promega). At 48 hr post-transfection, luciferase activity was measured with a luminometer using a dual luciferase assay kit (Promega) and normalized with renilla luciferase activity to determine transfection efficiency. GFP-LC3 puncta were detected using an inverted fluorescence microscope and the autophagy levels quantified as means (±SD) of the results from three independent experiments.

“5′AAGAUCCUGGACCGUGUCACC3′ [Beclin1 siRNA]” was tested, and the “endogenous Beclin1 expression” value [1] was “significantly reduced endogenous Beclin1 expression” and the “effect on rapamycin-induced autophagic death” value ([1]; cell death at day 5) was “attenuated rapamycin-induced autophagic death”.

For `CO[C@H]1C[C@@H]2CC[C@@H](C)[C@@](O)(O2)C(=O)C(=O)N2CCCC[C@H]2C(=O)O[C@H]([C@H](C)C[C@@H]2CC[C@@H](O)[C@H](OC)C2)CC(=O)[C@H](C)/C=C(\C)[C@@H](O)[C@@H](OC)C(=O)[C@H](C)C[C@H](C)/C=C/C=C/C=C/1C` [rapamycin], the “dead cells with features characteristic of autophagic death (EM)” value ([2]; rapamycin, 6 days, over 100 dead cells examined) was “approximately 60%”.

In the case of `COC(=O)CC(NC(=O)C(C)NC(=O)C(NC(=O)OCc1ccccc1)C(C)C)C(=O)CF` (stereo not drawn) [zVAD, benzyloxycarbonylvalyl-alanyl-aspartic acid (O-methyl)-fluoro-methylketone] (Cbz-Val-Ala-Asp(OMe)-CH2F; configuration not given here), the “growth suppression and cell death” value ([2]; BCBL1 cells) is reported as “effectively induced growth suppression and death of BCBL1 cells”.

For “RRRQRRKKRGY-G-FVNLLFLVVE (RRRQRRKKRGYGFVNLLFLVVE; not fully specified) [K-α2, HIV-1 TAT-fused retro-inverso peptide containing KSHV vFLIP aa20-29]”, the “phosphorylation of p70S6K” value [3] was “marginal reduction”, the “phosphorylation of ribosomal protein S6” value [3] was “remained unaffected” and the “amount of LC3-II” value [4] was “A high amount of LC3-II was detected”. For the same molecule, the “autophagy induction (GFP-LC3 puncta)” value [5] was “able to induce autophagy in TREX-BCBL-Vector cells as effectively as 2 μM rapamycin”, the “growth suppression and cell death in combination with rapamycin” value [6] was “marked increase of growth suppression and cell death” and the “cell death by lymphoma cell type” value [7] was “primarily targeted KSHV-infected PEL cells (BCBL1, BCP-1, and BC-3), but not KSHV/EBV-coinfected PEL cells (BC-1 and JSC-1), EBV-immortalized Bob-B cells, nor non-virus-associated lymphoma cells (BJAB, K562 and Jurkat-T)”. For the same molecule, the “anticancer activity in ALL cell lines” value [8] was “significant anticancer activities”.

In the case of “RRRQRRKKRGY-G-NEMCYVWHLFTQ (RRRQRRKKRGYGNEMCYVWHLFTQ; not fully specified) [K-α4, HIV-1 TAT-fused retro-inverso peptide containing KSHV vFLIP aa128-139]”, the “phosphorylation of p70S6K” value [3] is reported as “marginal reduction”, the “phosphorylation of ribosomal protein S6” value [3] is reported as “remained unaffected” and the “amount of LC3-II” value [4] is reported as “A high amount of LC3-II was detected”. The “anticancer activity in 293T cells” value [9] was “anticancer activities”, the “autophagy induction (GFP-LC3 puncta)” value [5] was “able to induce autophagy in TREX-BCBL-Vector cells as effectively as 2 μM rapamycin” and the “growth suppression and cell death in combination with rapamycin” value [6] was “marked increase of growth suppression and cell death”. For the same molecule, the “cell death in Jurket T” value [10] was “induced cell death”, the “cell death by lymphoma cell type” value [7] was “broadly targeted most lymphoma cells, resulting in varying degrees of cell death” and the “anticancer activity in LNCap cells” value ([11]; FIG. 7A) was “anticancer activities”. The “anticancer activity in LNCaP cells (cell count and relative luminescence)” value ([11]; FIG. 8) was “confirms the anticancer activities”, the “anticancer activity in ALL cell lines” value [8] was “significant anticancer activities” and the “cell death in ALL cells” value ([8]; TAT linked peptide, 30 μM and 50 μM, compared to TAT alone, FIG. 1) was “induced cell deaths in various ALL cells”. For the same molecule, the “anticancer activity in HCT116” value [12] was “anticancer activities” and the “cell death in K562” value [13] was “induced cell death”.

B1: mFADD (protein, UniProt Q61160 1-205, looked up)
FAS-associated death domain …: MDPFLVLLHSLSGSLSGNDLMELKFLCRERVSKRKLERVQSGLDLFTVLLEQNDLERGHTGLLRELLASLRRHDLLQRLDDFEAGTATAAPPGEADLQVAFDIVCDNVGRDWKRLARELKVSEAKMDGIEEKYPRSLSERVRESLKVWKNAEKKNASVAGLVKALRTCRLNLVADLVEEAQESVSKSENMSPVLRDSTVSSSETP
In the case of B1, the “block of rapamycin- or zVAD-induced growth suppression and autophagic death” value [14] is reported as “almost completely blocked” and the “block of TNFα-induced apoptosis” value [15] is reported as “either poorly blocked TNFα-induced apoptosis or no longer block it at all”.
